Key:
[1] = test system: powdery mildew (Sphaerotheca cucurbitae); test: Test of effect on cucumber powdery mildew, vaporization properties; format: in vivo; details: 100 ppm drug solution dropped on aluminum foil on cucumber first leaf; seven days after inoculation; 2 cm or more = vaporization effect
Experimental: A 10-mm square piece of aluminum foil was attached with a double-sided tape on the first leaf of cucumber planted in a 7.5-cm-diameter pot. […] The drug solution was added dropwise in […] using a micropipette. After air-drying the drug solution, the leaf was inoculated by spraying with a spore suspension of powdery mildew (Sphaerotheca cucurbitae). Seven days after inoculation, the diameter of a disease development inhibition circle on the cucumber first leaf was measured. The appearance of necrotic lesions on the leaf was examined in comparison with the untreated plot. There was judged to be a vaporization effect when an inhibition circle having a diameter of 2 cm or more was formed around the aluminum foil.

[2] = test system: wheat powdery mildew (Erysiphe graminis); test: Test of preventive effect on wheat powdery mildew; details: wheat seedlings
[3] = test system: Wheat scab (Microdochium nivale); test: Test of inhibition of growth of wheat scab mycelium; format: cell-based; details: read-out: inhibition rate (mycelium growth length)
[4] = treatment concentration 100 ppm

Compound | Diameter of disease development inhibition circle [1] [cm] | other results
CC1(C)[C@H]2CC[C@]1(CS(=O)(=O)O)C(=O)C2.CCN(C)C=Nc1cc(C)c(C#C[Si](C)(C)C)cc1C [Compound 175] | 7.0 | 
CCN(C)/C=N/c1ccc(-c2ccc(C(C)(C)C)cc2)cc1C [Reference Compound A] | 0 | Preventive value ([2]; treatment concentration 10 ppm): 10; Preventive value ([2]; treatment concentration 20 ppm): 20; Preventive value ([2]; treatment concentration 40 ppm): 70; Preventive value [2, 4]: 100
CCN(C)C=Nc1cc(C)c(C#CC(C)(C)O[Si](C)(C)C)cc1C [Compound 161] | 6.0 | 
CCN(C)C=Nc1cc(C)c(C#CC(C)(C)C)cc1C [Compound 98] | 9.5 | 
CCN(C)C=Nc1cc(F)c(C#C[Si](C)(C)C)cc1C.Cl [Compound 176] | 7.0 | 
CCN(C)C=Nc1cc(F)c(C#C[Si](C)(C)C)cc1C [Compound 158] | 3.75 | 
Cc1cc(N=CN2CCCCC2)c(C)cc1C#C[Si](C)(C)C [Compound 147] | 2.5 | 
Cc1cc(N=CN(C)C)c(C)cc1C#CC(C)(C)C [Compound 52, N,N-dimethyl-N′-[2,5-dimethyl-4-(3,3-dimethyl-1-butynyl)phenyl]formamidine] |  | inhibition at 10 ppm [3]: 100%
CCN(C)C=Nc1cc(Cl)c(C#C[Si](C)(C)C)cc1C [Compound 93] | 6.0 | 
CCN(C)C=Nc1cc(C)c(C#C[Si](C)(C)C)cc1C.Cl [Compound 162, N-ethyl-N-methyl-N′-[2,5-dimethyl-4-(2-trimethylsilyl-1-ethynyl)phenyl]formamidine hydrochloride] | 8.0 | 
Cc1cc(N=CN(C)C)c(C)cc1C#C[Si](C)(C)C [Compound 59, N,N-dimethyl-N′-[2,5-dimethyl-4-(2-trimethylsilyl-1-ethynyl)phenyl]formamidine] |  | inhibition at 10 ppm [3]: 100%
CCN(C)C=Nc1cc(C)c(C#CC(C)(C)C)cc1Cl [Compound 85] | 6.0 | 
CCN(C)C=Nc1ccc(C#CC(C)(C)C)cc1C [Compound 66, N-ethyl-N-methyl-N′-[2-methyl-4-(3,3-dimethyl-1-butynyl)phenyl]formamidine] |  | inhibition at 10 ppm [3]: 100%
N-ethyl-N-methyl-N′-[2,5-dimethyl-4-(2-trimethylsilyl-1-ethynyl)phenyl]formamidine (+)-camphorsulfonate [Compound 174] | 7.0 | 
CCN(C)C=Nc1cc(C)c(C#C[Si](C)(C)C)cc1C [Compound 123, N-ethyl-N-methyl-N′-[2,5-dimethyl-4-(2-trimethylsilyl-1-ethynyl)phenyl]formamidine] | 9.5 | Preventive value ([2]; treatment concentration 10 ppm): 100; Preventive value ([2]; treatment concentration 20 ppm): 100; Preventive value ([2]; treatment concentration 40 ppm): 100; Preventive value [2, 4]: 100; inhibition at 10 ppm [3]: 100%
Cc1cc(N=CN(C)C(C)C)c(C)cc1C#C[Si](C)(C)C(C)(C)C [Compound 171] | 7.0 | 
CCN(C)/C=N/c1cc(C)c(-c2ccc(C(C)(C)C)cc2)cc1C [Reference Compound B] | 0 | Preventive value ([2]; treatment concentration 10 ppm): 40; Preventive value ([2]; treatment concentration 20 ppm): 70; Preventive value ([2]; treatment concentration 40 ppm): 70; Preventive value [2, 4]: 95
CCN(C)C=Nc1cc(Cl)c(C#CC(C)(C)C)cc1C.Cl [Compound 172] | 7.0 | 
CCN(C)C=Nc1cc(C)c(C#C[Si](CC)(CC)CC)cc1C [Compound 124] | 3.75 | 
CCN(C)C=Nc1ccc(C#C[Si](CC)(CC)CC)cc1C [Compound 69] | 2.75 | 
CCN(C)C=Nc1cc(C)c(C#C[Si](C)(C)C(C)(C)C)cc1C.Cl [Compound 163] | 8.0 | 
CCN(C)C=Nc1cc(Cl)c(C#CC(C)(C)C)cc1C [Compound 91] | 6.0 | 
CCN(C)C=Nc1cc(C)c(C#C[Si](C)(C)C(C)(C)C)cc1C [Compound 126] | 6.5 | 
CCN(C)C=Nc1cc(C)c(C#CC[Si](C)(C)C)cc1C [Compound 127] | 2.0 | 
